This passage reports IC50 results from patent publication US20200016159A1, “N3-CYCLICALLY SUBSTITUTED THIENOURACILS AND USE THEREOF” (Bayer Aktiengesellschaft, priority 2016, published 2020).

pIC50: −log10 of the molar value.

This experiment has as its target T1, human adenosine A2b receptor (Homo sapiens, UniProt P29275).
T1 sequence (P29275 1-332): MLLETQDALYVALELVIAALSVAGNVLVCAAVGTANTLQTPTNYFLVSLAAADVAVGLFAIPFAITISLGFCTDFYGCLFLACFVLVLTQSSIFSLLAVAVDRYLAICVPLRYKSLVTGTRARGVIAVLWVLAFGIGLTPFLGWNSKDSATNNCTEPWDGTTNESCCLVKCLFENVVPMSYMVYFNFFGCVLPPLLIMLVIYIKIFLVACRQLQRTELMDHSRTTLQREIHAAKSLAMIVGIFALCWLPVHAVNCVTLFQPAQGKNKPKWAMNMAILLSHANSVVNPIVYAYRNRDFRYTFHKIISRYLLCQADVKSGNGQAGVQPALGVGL
The experiment can be described thus: Cellular in vitro reporter gene test for A2b receptor activity (antagonism of NECA). On the set-up: expressed in transfected cells; host or cells: CHO-K1 (Chinese hamster ovary) with CRE-luciferase reporter. The note with it: recombinant CHO-K1 cells, CRE-luciferase reporter, co-incubation with EC50 concentration of NECA, 3 hours. Type of experiment: cell-based. An outline of the steps:
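Antagonism measured as block of NECA-induced, cAMP/CRE-dependent luciferase expression in recombinant A2b CHO-K1 cells. NECA used at the EC50 set in a pre-experiment on each test day; luminescence detected after 3 h. Reported as IC50, partly averaged and rounded to two significant figures.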
In general, pIC50 refers to the IC50 on a negative log10 scale, so that one unit is a factor of ten. `Cc1c(CN2CCNC2=O)sc2c1c(=O)n(C1(C)CC1)c(=O)n2CC1CC1(F)F` (single isomer, unassigned) [Example 64, 1-[(2,2-Difluorocyclopropyl)methyl]-5-methyl-3-(1-methylcyclopropyl)-6-[(2-oxoimidazolidin-1-yl)methyl]thieno[2,3-d]pyrimidine-2,4(1H,3H)-dione]: the pIC50 is 7.89. Then `Cc1c(CN2CCNC2=O)sc2c1c(=O)n(C1CC1C)c(=O)n2CCC(F)(F)F` (racemic) [Example 93, 5-Methyl-3-(2-methylcyclopropyl)-6-[(2-oxoimidazolidin-1-yl)methyl]-1-(3,3,3-trifluoropropyl)thieno[2,3-d]pyrimidine-2,4(1H,3H)-dione], with 8.74.

In the case of `Cc1c(CN2CCNC2=O)sc2c1c(=O)n(C1(C)CC1)c(=O)n2CCOC(C)C` [Example 79, 1-(2-Isopropoxyethyl)-5-methyl-3-(1-methylcyclopropyl)-6-[(2-oxoimidazolidin-1-yl)methyl]thieno[2,3-d]pyrimidine-2,4(1H,3H)-dione], the pIC50 is 6.96. With `Cc1c(CN2CCNC2=O)sc2c1c(=O)n(C1CC1C)c(=O)n2C[C@H]1CCCO1` (single isomer, unassigned) [Example 288], the pIC50 was 7.33. For `COCCn1c(=O)n(C2(C)CCC2)c(=O)c2c(C)c(Cn3nc[nH]c3=O)sc21` [Example 143, 1-(2-Methoxyethyl)-5-methyl-3-(1-methylcyclobutyl)-6-[(5-oxo-4,5-dihydro-H-1,2,4-triazol-1-yl)methyl]thieno[2,3-d]pyrimidine-2,4(1H,3H)-dione] the value was 6.06. For `Cc1c(Cn2nc[nH]c2=O)sc2c1c(=O)n(C1CC1)c(=O)n2C[C@@H]1CCCO1` [Example 51, 3-Cyclopropyl-5-methyl-6-[(5-oxo-4,5-dihydro-1H-1,2,4-triazol-1-yl)methyl]-1-[(2S)-tetrahydrofuran-2-ylmethyl]thieno[2,3-d]pyrimidine-2,4(1H, 3H)-dione] the value was 6.49; for `Cc1c(CN2CCNC2=O)sc2c1c(=O)n(C1CC1)c(=O)n2CC1CCCO1` (racemic) [Example 37, 3-Cyclopropyl-5-methyl-6-[(2-oxoimidazolidin-1-yl)methyl]-1-(tetrahydrofuran-2-ylmethyl)thieno[2,3-d]pyrimidine-2,4(1H,3H)-dione], 7.46. For `CCCCn1c(=O)n(C2(C)CC2)c(=O)c2c(C)c(CN3CCNC3=O)sc21` [Example 54, 1-Butyl-5-methyl-3-(1-methylcyclopropyl)-6-[(2-oxoimidazolidin-1-yl)methyl]thieno[2,3-d]pyrimidine-2,4(1H,3H)-dione] the value was 8.12; for `Cc1c(CN2CCNC2=O)sc2c1c(=O)n(C1COC1)c(=O)n2CCC(F)(F)F` [Example 130, 5-Methyl-3-(oxetan-3-yl)-6-[(2-oxoimidazolidin-1-yl)methyl]-1-(3,3,3-trifluoropropyl)thieno[2,3-d]pyrimidine-2,4(1H,3H)-dione], 7.85.

Turning to `COC(=O)N=C1NCCN1Cc1sc2c(c1C)c(=O)n(C1CC1)c(=O)n2CC1CCCO1` (single isomer, unassigned) [Example 43, Methyl [1-{[3-cyclopropyl-5-methyl-2,4-dioxo-1-(tetrahydrofuran-2-ylmethyl)-1,2,3,4-tetrahydrothieno[2,3-d]pyrimidin-6-yl]methyl}imidazolidin-2-ylidene]carbamate], the pIC50 is 7.92. Regarding `CCC1(n2c(=O)c3c(C)c(Cn4nc[nH]c4=O)sc3n(CCOC)c2=O)CC1` [Example 109, 3-(1-Ethylcyclopropyl)-1-(2-methoxyethyl)-5-methyl-6-[(5-oxo-4,5-dihydro-H-1,2,4-triazol-1-yl)methyl]thieno[2,3-d]pyrimidine-2,4(1H,3H)-dione], the pIC50 is 6.19.

On to `CCCn1c(=O)n(C2CC2C)c(=O)c2c(C)c(CN3CCNC3=O)sc21` (racemic) [Example 227, 5-Methyl-3-(2-methylcyclopropyl)-6-[(2-oxoimidazolidin-1-yl)methyl]-1-propylthieno[2,3-d]pyrimidine-2,4(1H,3H)-dione], for which the pIC50 was 8.54. Turning to `CCOCCn1c(=O)n(C2(C)CC2)c(=O)c2c(C)c(CN3CCNC3=O)sc21` [Example 77, 1-(2-Ethoxyethyl)-5-methyl-3-(1-methylcyclopropyl)-6-[(2-oxoimidazolidin-1-yl)methyl]thieno[2,3-d]pyrimidine-2,4(1H,3H)-dione], the pIC50 was 7.11. Regarding `COCCn1c(=O)n(C2CCCC2)c(=O)c2c(C)c(CN3CCNC(=O)C3=O)sc21` [Example 192, 3-Cyclopentyl-6-[(2,3-dioxopiperazin-1-yl)methyl]-1-(2-methoxyethyl)-5-methylthieno[2,3-d]pyrimidine-2,4(1H,3H)-dione], the pIC50 was 6.85.

On to `Cc1c(Cn2nc[nH]c2=O)sc2c1c(=O)n(C1CCCC1)c(=O)n2CCC(F)(F)F` [Example 188, 3-Cyclopentyl-5-methyl-6-[(5-oxo-4,5-dihydro-1H-1,2,4-triazol-1-yl)methyl]-1-(3,3,3-trifluoropropyl)thieno[2,3-d]pyrimidine-2,4(1H,3H)-dione], for which the pIC50 is 7.00. `CCCn1c(=O)n([C@H]2C[C@@H]2C)c(=O)c2c(C)c(Cn3nc[nH]c3=O)sc21` [Example 317, 5-Methyl-3-[(1S,2S)-2-methylcyclopropyl]-6-[(5-oxo-4,5-dihydro-1H-1,2,4-triazol-1-yl)methyl]-1-propylthieno[2,3-d]pyrimidine-2,4(1H,3H)-dione]: the pIC50 was 7.72. For `Cc1c(CN2CCNC2=O)sc2c1c(=O)n(C1CC1)c(=O)n2CCOC(C)C` [Example 33, 3-Cyclopropyl-1-(2-isopropoxyethyl)-5-methyl-6-[(2-oxoimidazolidin-1-yl)methyl]thieno[2,3-d]pyrimidine-2,4(1H,3H)-dione] the value was 7.00; for `CCC1CC1n1c(=O)c2c(C)c(Cn3nc[nH]c3=O)sc2n(CCOC)c1=O` (single isomer, unassigned) [Example 305, 3-(2-Ethylcyclopropyl)-1-(2-methoxyethyl)-5-methyl-6-[(5-oxo-4,5-dihydro-H-1,2,4-triazol-1-yl)methyl]thieno[2,3-d]pyrimidine-2,4(1H,3H)-dione], 6.92; for `Cc1c(Cn2nc[nH]c2=O)sc2c1c(=O)n(C1CC1)c(=O)n2CC1CC1(F)F` (single isomer, unassigned; enantiomer 1) [Example 21, 3-Cyclopropyl-1-[(2,2-difluorocyclopropyl)methyl]-5-methyl-6-[(5-oxo-4,5-dihydro-1H-1,2,4-triazol-1-yl)methyl]thieno[2,3-d]pyrimidine-2,4(1H,3H)-dione (enantiomer 1)], 7.28. Then `CCCn1c(=O)n(C2CC2C)c(=O)c2c(C)c(CN3CCNC3=O)sc21` (single isomer, unassigned) [Example 229, 5-Methyl-3-(2-methylcyclopropyl)-6-[(2-oxoimidazolidin-1-yl)methyl]-1-propylthieno[2,3-d]pyrimidine-2,4(1H,3H)-dione], with 8.92. Then `COCCn1c(=O)n(C2CC2C(F)(F)F)c(=O)c2c(C)c(CN3CCNC3=O)sc21` (single isomer, unassigned) [Example 296, 1-(2-Methoxyethyl)-5-methyl-6-[(2-oxoimidazolidin-1-yl)methyl]-3-[2-(trifluoromethyl)cyclopropyl]thieno[2,3-d]pyrimidine-2,4(1H,3H)-dione], with 7.80; and `Cc1c(Cn2nc[nH]c2=O)sc2c1c(=O)n([C@H]1C[C@@H]1C)c(=O)n2CC(F)F` [Example 320, 1-(2,2-Difluoroethyl)-5-methyl-3-[(S,2S)-2-methylcyclopropyl]-6-[(5-oxo-4,5-dihydro-1H-1,2,4-triazol-1-yl)methyl]thieno[2,3-d]pyrimidine-2,4(1H,3H)-dione], with 7.89; and `COCCn1c(=O)n(C2CC2C)c(=O)c2c(C)c(CN3CCNC3=O)sc21` (racemic) [Example 258, 1-(2-Methoxyethyl)-5-methyl-3-(2-methylcyclopropyl)-6-[(2-oxoimidazolidin-1-yl)methyl]thieno[2,3-d]pyrimidine-2,4(1H,3H)-dione], with 8.19. Take `COCCn1c(=O)n(C2CC(F)(F)C2)c(=O)c2c(C)c(CN3CCNC3=NC#N)sc21` [Example 126, [1-{[3-(3,3-Difluorocyclobutyl)-1-(2-methoxyethyl)-5-methyl-2,4-dioxo-1,2,3,4-tetrahydrothieno[2,3-d]pyrimidin-6-yl]methyl}imidazolidin-2-ylidene]cyanamide]: the pIC50 was 7.85. Then `Cc1c(Cn2nc[nH]c2=O)sc2c1c(=O)n(C1CC1)c(=O)n2CCCF` [Example 197, 3-Cyclopropyl-1-(3-fluoropropyl)-5-methyl-6-[(5-oxo-4,5-dihydro-1H-1,2,4-triazol-1-yl)methyl]thieno[2,3-d]pyrimidine-2,4(1H,3H)-dione], with 6.92; and `Cc1c(CN2CCNC2=O)sc2c1c(=O)n([C@H]1C[C@@H]1C)c(=O)n2CC1CCC1` [Example 248, 1-(Cyclobutylmethyl)-5-methyl-3-[(1S,2S)-2-methylcyclopropyl]-6-[(2-oxoimidazolidin-1-yl)methyl]thieno[2,3-d]pyrimidine-2,4(1H,3H)-dione], with 8.92.
